Experimental data reported in patent publication US11649246B2, “Salts of 4-amino-N-(l-((3-chloro-2-fluorophenyl)amino)-6-methylisoquinolin-5-yl)thieno[3,2-D]pyrimidine-7-carboxamide, and crystalline forms thereof” (Hanmi Pharm. Co., Ltd., priority 2017, dated 2023).
In brackets after ≈: the same amount, converted by molar mass. Read-outs that look alike come from different tables or passages of the source.

Columns and labels:
Format in all cases: physicochemical
[1] = Solubility of bis-hydrochloride Form I by HPLC test and observation test
Method: Solubility was measured by HPLC according to KP, USP and EP general chapters. […] The results of solubility were same between HPLC test and observation test.

[2] = Partition / distribution coefficient octanol-water (Sirius T3); settings: octanol/water
Method: The partition coefficient, Log P, was measured with a T3 (Sirius Analytical Instrument Ltd., UK). About 1 mg of Formula (I) bis-hydrochloride was added to a 15 mL GLpKa beaker, dissolved with octanol/150 mM KCl, adjusted to pH 1.8 with 0.5 N HCl, and titrated up to pH 12.2 with 0.5 N KOH. The partition coefficient of the octanol-water system was determined by correcting the difference between titration curves of the blank from the titration curve, by inserting the value of the dissociation constant measured previously.

[3] = Long-term stability at 20° C. to 30° C., 60% relative humidity, protection from light; settings: 60% RH
Method: The stability of crystalline Formula (I) bis-hydrochloride Form I was evaluated at 3 months, 6 months, 9 months, 12 months, 18 months and 24 under conditions of 20° C. to 30° C. at 60% relative humidity and protection from light. Stability criteria included the following. At each interval from 3 to 24 months the crystalline Formula (I) bis-hydrochloride Form I appeared as a pale brown to off-white powder. Identification was performed by IR, PXRD and HPLC methods as described elsewhere herein with results reported as pass/fail. Purity was determined by HPLC with known impurities at relative retention times (“RRT”) of 1.1, 1.7 and 2.1. The results are shown in Table 22 where “Init” refers to initial, “Iden” refers to identification, “Imp” refers to impurity, “A.U.I.” refers to any unspecified impurity, “T.U.I.” refers to total unspecified impurity, “T.I.” refers to total impurities, and “N.D.” refers to not detected. The PXRD results at initial, 6 months, 12 months and 24 months are depicted in FIG. 33.

Cc1ccc2c(Nc3cccc(Cl)c3F)nccc2c1NC(=O)c1csc2c(N)ncnc12 [Example 3, 4-amino-N-(1-((3-chloro-2-fluorophenyl)amino)-6-methylisoquinolin-5-yl)thieno[3,2-d]pyrimidine-7-carboxamide]
solubility ([1]; ACN): 113431 mL/g
Solubility Observation ([1]; ACN, listed as Formula (I) bis-hydrochloride Form I): Practically insoluble
solubility ([1]; DMSO): 8 mL/g
Solubility Observation ([1]; DMSO, listed as Formula (I) bis-hydrochloride Form I): Freely soluble
solubility ([1]; Dichloromethane): 366289 mL/g
Solubility Observation ([1]; Dichloromethane, listed as Formula (I) bis-hydrochloride Form I): Practically insoluble
solubility ([1]; Ethanol): 1316 mL/g
Solubility Observation ([1]; Ethanol, listed as Formula (I) bis-hydrochloride Form I): Very slightly soluble
solubility ([1]; Ethyl acetate): 356535 mL/g
Solubility Observation ([1]; Ethyl acetate, listed as Formula (I) bis-hydrochloride Form I): Practically insoluble
solubility ([1]; Ethyl ether): 522061 mL/g
Solubility Observation ([1]; Ethyl ether, listed as Formula (I) bis-hydrochloride Form I): Practically insoluble
solubility ([1]; Methanol): 58 mL/g
Solubility Observation ([1]; Methanol, listed as Formula (I) bis-hydrochloride Form I): Sparingly soluble
solubility ([1]; Water): 654940 mL/g
Solubility Observation ([1]; Water, listed as Formula (I) bis-hydrochloride Form I): Practically insoluble
solubility ([1]; aqueous buffer, thermodynamic from solid, pH 3.0 buffer, read-out: Solubility): 20 µg/mL (≈ 41.8 µM)
solubility ([1]; aqueous buffer, thermodynamic from solid, pH 4.0 buffer, read-out: Solubility): 3 µg/mL (≈ 6.26 µM)
solubility ([1]; aqueous buffer, thermodynamic from solid, pH 5.0 buffer, read-out: Solubility): 0.09 µg/mL (≈ 0.188 µM)
solubility ([1]; aqueous buffer, thermodynamic from solid, pH 6.0 buffer, read-out: Solubility): 0.1 µg/mL (≈ 0.209 µM)
solubility ([1]; aqueous buffer, thermodynamic from solid, pH 6.8 buffer, read-out: Solubility): 0.09 µg/mL (≈ 0.188 µM)
solubility ([1]; aqueous buffer, thermodynamic from solid, pH 7.0 buffer, read-out: Solubility): 0.06 µg/mL (≈ 0.125 µM)
solubility ([1]; aqueous buffer, thermodynamic from solid, pH 8.0 buffer, read-out: Solubility): 0.05 µg/mL (≈ 0.104 µM)
solubility ([1]; n-Hexane): 22316479 mL/g
Solubility Observation ([1]; n-Hexane, listed as Formula (I) bis-hydrochloride Form I): Practically insoluble
solubility ([1]; organic solvent or mixture, thermodynamic from solid, ACN, read-out: Solubility): 8 µg/mL (≈ 16.7 µM)
solubility ([1]; organic solvent or mixture, thermodynamic from solid, DMSO, read-out: Solubility): 131000 µg/mL (≈ 273000 µM)
solubility ([1]; organic solvent or mixture, thermodynamic from solid, Dichloromethane, read-out: Solubility): 2.7 µg/mL (≈ 5.64 µM)
solubility ([1]; organic solvent or mixture, thermodynamic from solid, Ethanol, read-out: Solubility): 800 µg/mL (≈ 1670 µM)
solubility ([1]; organic solvent or mixture, thermodynamic from solid, Ethyl acetate, read-out: Solubility): 2.8 µg/mL (≈ 5.85 µM)
solubility ([1]; organic solvent or mixture, thermodynamic from solid, Ethyl ether, read-out: Solubility): 1.9 µg/mL (≈ 3.97 µM)
solubility ([1]; organic solvent or mixture, thermodynamic from solid, Methanol, read-out: Solubility): 17400 µg/mL (≈ 36300 µM)
solubility ([1]; organic solvent or mixture, thermodynamic from solid, n-Hexane, read-out: Solubility): 0.04 µg/mL (≈ 0.0835 µM)
solubility ([1]; pH 1.2 buffer): 3811 mL/g
Solubility Observation ([1]; pH 1.2 buffer, listed as Formula (I) bis-hydrochloride Form I): Very slightly soluble
solubility ([1]; pH 2.0 buffer): 1688 mL/g
Solubility Observation ([1]; pH 2.0 buffer, listed as Formula (I) bis-hydrochloride Form I): Very slightly soluble
Solubility Observation ([1]; pH 3.0 buffer): Practically insoluble
solubility ([1]; pH 3.0 buffer): 42855 mL/g
Solubility Observation ([1]; pH 4.0 buffer): Practically insoluble
solubility ([1]; pH 4.0 buffer): 331069 mL/g
Solubility Observation ([1]; pH 5.0 buffer): Practically insoluble
solubility ([1]; pH 5.0 buffer): 10759731 mL/g
Solubility Observation ([1]; pH 6.0 buffer): Practically insoluble
solubility ([1]; pH 6.0 buffer): 9770999 mL/g
Solubility Observation ([1]; pH 6.8 buffer): Practically insoluble
solubility ([1]; pH 6.8 buffer): 11528283 mL/g
Solubility Observation ([1]; pH 7.0 buffer): Practically insoluble
solubility ([1]; pH 7.0 buffer): 16139597 mL/g
Solubility Observation ([1]; pH 8.0 buffer): Practically insoluble
solubility ([1]; pH 8.0 buffer): 21884199 mL/g
solubility ([1]; simulated gastric fluid, thermodynamic from solid, pH 1.2 buffer, read-out: Solubility): 300 µg/mL (≈ 626 µM)
solubility ([1]; simulated gastric fluid, thermodynamic from solid, pH 2.0 buffer, read-out: Solubility): 600 µg/mL (≈ 1250 µM)
solubility ([1]; thermodynamic from solid, Water, read-out: Solubility): 1.5 µg/mL (≈ 3.13 µM)
logD ([2]; pH 1): 0.02
logD ([2]; pH 1.2): 0.05
logD ([2]; pH 2): 0.77
logD ([2]; pH 3): 2.64
logD ([2]; pH 4): 4.26
logD ([2]; pH 5): 5.06
logD ([2]; pH 6): 5.22
logD ([2]; pH 6.5): 5.24
logD ([2]; pH 7): 5.24
logD ([2]; pH 8): 5.24
logD ([2]; pH 9): 5.23
logD ([2]; pH 10): 5.11
logD ([2]; pH 11): 4.71
logD ([2]; pH 12): 4.4
A.U.I. (any unspecified impurity) ([3]; 3 mo): 0.03%
Identity HPLC ([3]; 3 mo): pass
Imp 1 ([3]; 3 mo): 0.02%
Imp RRT 1.7 ([3]; 3 mo): 0.08%
Purity ([3]; 3 mo): 99.8%
T.I. (total impurities) ([3]; 3 mo): 0.15%
T.U.I (total unspecified impurity) ([3]; 3 mo): 0.05%
A.U.I. (any unspecified impurity) ([3]; 6 mo): 0.03%
Identity HPLC ([3]; 6 mo): pass
Identity IR ([3]; 6 mo): pass
Identity PXRD ([3]; 6 mo): pass
Imp 1 ([3]; 6 mo): 0.03%
Imp RRT 1.7 ([3]; 6 mo): 0.08%
Purity ([3]; 6 mo): 99.8%
T.I. (total impurities) ([3]; 6 mo): 0.16%
T.U.I (total unspecified impurity) ([3]; 6 mo): 0.05%
A.U.I. (any unspecified impurity) ([3]; 9 mo): 0.03%
Identity HPLC ([3]; 9 mo): pass
Imp 1 ([3]; 9 mo): 0.02%
Imp RRT 1.7 ([3]; 9 mo): 0.08%
Purity ([3]; 9 mo): 99.8%
T.I. (total impurities) ([3]; 9 mo): 0.16%
T.U.I (total unspecified impurity) ([3]; 9 mo): 0.05%
A.U.I. (any unspecified impurity) ([3]; 12 mo): 0.06%
Identity HPLC ([3]; 12 mo): pass
Identity IR ([3]; 12 mo): Pass
Identity PXRD ([3]; 12 mo): Pass
Imp 1 ([3]; 12 mo): 0.02%
Imp RRT 1.7 ([3]; 12 mo): 0.02%
Purity ([3]; 12 mo): 99.8%
T.I. (total impurities) ([3]; 12 mo): 0.14%
T.U.I (total unspecified impurity) ([3]; 12 mo): 0.09%
A.U.I. (any unspecified impurity) ([3]; 18 mo): 0.06%
Identity HPLC ([3]; 18 mo): pass
Imp 1 ([3]; 18 mo): 0.02%
Imp RRT 1.7 ([3]; 18 mo): 0.02%
Purity ([3]; 18 mo): 99.9%
T.I. (total impurities) ([3]; 18 mo): 0.13%
T.U.I (total unspecified impurity) ([3]; 18 mo): 0.09%
A.U.I. (any unspecified impurity) ([3]; 24 mo): 0.06%
Identity HPLC ([3]; 24 mo): pass
Imp 1 ([3]; 24 mo): 0.02%
Imp RRT 1.7 ([3]; 24 mo): 0.02%
Purity ([3]; 24 mo): 99.8%
T.I. (total impurities) ([3]; 24 mo): 0.15%
T.U.I (total unspecified impurity) ([3]; 24 mo): 0.11%
A.U.I. (any unspecified impurity) ([3]; Init): 0.04%
Identity HPLC ([3]; Init): pass
Identity IR ([3]; Init): pass
Identity PXRD ([3]; Init): pass
Imp 1 ([3]; Init): 0.01%
Imp RRT 1.7 ([3]; Init): 0.08%
Purity ([3]; Init): 99.9%
T.I. (total impurities) ([3]; Init): 0.14%
T.U.I (total unspecified impurity) ([3]; Init): 0.05%
